Data as given in ChEMBL document CHEMBL1201862, “PubChem BioAssay data set” (2004).
One block for each compound: values may come before it. Active and inactive are the calls of the source.

Experiments:
[1] = viability of uninfected HEp-2 cells – cell-based, HTS, cytotoxicity control for RSV inhibitor project, dose response (AID 2410); assay type: functional; details: human respiratory syncytial virus
Caspase-3 = target: T1, Caspase-3 (Homo sapiens, UniProt P42574); experiment: activators of human procaspase-3 D3A mutant – biochemical, absorbance, PC-3 D3A mutant, counter-screen for dual procaspase-3/7 activator project, dose response (AID 504328)
T1 sequence (P42574 whole entry): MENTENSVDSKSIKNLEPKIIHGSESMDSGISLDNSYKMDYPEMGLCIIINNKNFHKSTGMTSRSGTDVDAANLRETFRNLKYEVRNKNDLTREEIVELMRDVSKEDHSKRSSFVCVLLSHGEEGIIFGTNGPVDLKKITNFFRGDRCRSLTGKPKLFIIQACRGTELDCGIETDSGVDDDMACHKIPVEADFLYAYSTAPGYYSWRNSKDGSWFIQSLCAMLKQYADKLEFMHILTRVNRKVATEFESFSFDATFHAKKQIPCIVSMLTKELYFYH

Caspase-7 = Caspase-7 (Homo sapiens, UniProt P55210); experiment: potency of procaspase-7 enzyme activation – biochemical, absorbance, human, dual procaspase-3/-7 activator project, dose response (AID 504330)
Protein Rev = Protein Rev (Human immunodeficiency virus type 1 group M subtype B (isolate HXB2)(HIV-1), UniProt P04618); experiment: blockers of HIV Rev/RRE RNA complex – biochemical, fluorescence polarization, HIV-1, dose response (AID 434976); set-up: species or system Human immunodeficiency virus 1
[2] = target: Female germline-specific tumor suppressor gld-1 (Caenorhabditis elegans, UniProt Q17339); experiment: blockers of GLD-1/TGE RNA complex formation – biochemical, fluorescence polarization, C. elegans, dose response (AID 2802);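 further: fluorescence polarization of labeled TGE RNA bound by purified gld-1 protein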
Estrogen receptor beta = Estrogen receptor beta (Homo sapiens, UniProt Q92731);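 further: recombinant ER-beta bound to coactivator SRC1 peptide in presence of estradiol agonist; inhibitors block coactivator peptide binding and lower the FRET signal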
H9c2 = experiment: cells; assay type: functional, cell-based; details: Rattus norvegicus, H9c2, Myocardium;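 further: confirmatory concentration-response retest of ultra-high-throughput screening hits for modulation of myocardial damage; cell death induced by hydrogen peroxide oxidative stress; compound pretreatment for 60 min then peroxide exposure for 2 h; potency is for protecting the cells against peroxide damage rather than for killing them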
[3] = target: T2, Sentrin-specific protease 1 (Homo sapiens, UniProt Q9P0U3); experiment: SENP1 catalytic domain blockers, concentration series – biochemical, kinetic FRET, dose response (AID 651697); assay type: functional; details: read-out: IC50_Mean
T2 sequence (Q9P0U3 whole entry): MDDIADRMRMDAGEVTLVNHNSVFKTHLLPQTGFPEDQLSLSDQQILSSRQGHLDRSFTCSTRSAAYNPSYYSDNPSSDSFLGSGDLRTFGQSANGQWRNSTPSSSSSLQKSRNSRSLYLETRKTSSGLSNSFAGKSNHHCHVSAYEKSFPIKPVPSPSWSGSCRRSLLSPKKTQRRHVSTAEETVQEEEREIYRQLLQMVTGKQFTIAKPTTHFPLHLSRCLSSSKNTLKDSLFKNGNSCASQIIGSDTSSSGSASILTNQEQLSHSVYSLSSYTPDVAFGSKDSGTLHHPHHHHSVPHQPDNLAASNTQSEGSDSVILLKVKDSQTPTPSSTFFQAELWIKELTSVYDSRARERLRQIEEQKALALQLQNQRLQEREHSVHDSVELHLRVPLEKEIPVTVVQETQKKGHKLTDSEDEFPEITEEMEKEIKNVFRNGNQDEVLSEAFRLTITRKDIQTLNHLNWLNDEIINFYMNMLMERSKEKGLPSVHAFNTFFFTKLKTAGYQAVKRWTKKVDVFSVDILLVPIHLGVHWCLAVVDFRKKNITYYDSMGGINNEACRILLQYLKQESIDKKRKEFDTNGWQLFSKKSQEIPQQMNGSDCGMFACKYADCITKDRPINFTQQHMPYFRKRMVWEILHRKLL

[4] = target: T2, Sentrin-specific protease 1; experiment: Dose response confirmation of small molecule inhibitors of the catalytic domain of the SUMO protease, SENP1 in a FRET assay.; assay type: functional; details: read-out: IC50_Mean
Cytochrome P450 2D6 = Cytochrome P450 2D6 (Homo sapiens, UniProt P10635); experiment: qHTS Assay for Inhibitors and Substrates of Cytochrome P450 2D6. [Related pubchem assays: 410 ]; assay type: ADME; details: read-out: Potency
Cytochrome P450 2C9 = Cytochrome P450 2C9 (Homo sapiens, UniProt P11712); details: Potency
[5] = NIH-3T3 fibroblast cytotoxicity, dose response, cytotoxicity control, cell-based, fluorescence, Alamar Blue, secondary assay (AID 2327); assay type: functional;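 further: NIH-3T3 mouse fibroblasts cultured with fluconazole at 8 µg/mL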
[6] = target: Eukaryotic translation initiation factor 4H (Homo sapiens, UniProt Q15056); experiment: eIF4H binding inhibition – biochemical, uHTS, fluorescence polarization, translation initiation inhibitor project, primary screen (AID 2012)
[7] = fluconazole-exposed Candida albicans growth modulators – fluorescence, retest, confirmation (AID 2467); assay type: functional, cell-based
[8] = target: Polyadenylate-binding protein 1 (Homo sapiens, UniProt P11940); experiment: blockers of PABP interaction with poly(A) – biochemical, fluorescence polarization, […] (AID 2014)
Genome polyprotein = Genome polyprotein (dengue virus type 2, UniProt P29990); experiment: flavivirus cap methylation enzyme inhibition – biochemical, confirmation dose response, primary screen (AID 588689); assay type: functional
Protein Tat = Protein Tat (Human immunodeficiency virus type 1 group M subtype B (isolate HXB2)(HIV-1), UniProt P04608); assay type: functional;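 further: tat binding to TAR RNA read out by fluorescence polarization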
[9] = viability of PTEN-deleted HCT116 cells – cell-based, HCT116 PTEN knockout, dose response (AID 1047); assay type: functional;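 further: HCT116 colon tumor cells with PTEN knocked out; cells exposed to compound for 60 hours before readout; potency for loss of cell viability measured by luminescence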
[10] = viability of HCT116 lacking mutant beta-catenin – cell-based, human colon tumor, dose response (AID 1045); assay type: functional;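 further: HCT116 colon tumor cells with beta catenin knocked out; cells exposed to compound for 60 hours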
X-box-binding protein 1 = X-box-binding protein 1 (Homo sapiens, UniProt P17861); assay type: functional, Cricetulus griseus;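 further: confirmatory dose-response counter-screen serving a CHOP assay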
[11] = target: Neuropeptides B/W receptor type 1 (Homo sapiens, UniProt P48145); experiment: Fluorescence-based dose response cell-based high throughput screening assay to identify antagonists of the G-protein coupled receptor 7 (GPR7). [Related pubchem assays: 1952 (Screening assay (GPR7 antagonists).), 1880 (Summary AID.)]; assay type: functional
[12] = target: Melanin-concentrating hormone receptor 1 (Homo sapiens, UniProt Q99705); experiment: Fluorescence-based counterscreen for antagonists of the G-protein coupled receptor 7 (GPR7): cell-based high throughput dose response assay to identify antagonists of the melanin-concentrating hormone receptor 1 (MCHR1).; assay type: functional
[13] = target: Voltage-gated N-type calcium channel alpha-1B subunit/Amyloid beta A4 precursor protein-binding family A member 1 (Homo sapiens, UniProt Q00975+Q02410); experiment: disruptors of Mint-PDZ/N-type channel peptide interaction – biochemical, HTRF, set 2, SAR follow-up (AID 434980); assay type: functional
[14] = target: T3, Tyrosine-protein phosphatase non-receptor type 7 (Homo sapiens, UniProt P35236); assay type: functional
T3 sequence (P35236 whole entry): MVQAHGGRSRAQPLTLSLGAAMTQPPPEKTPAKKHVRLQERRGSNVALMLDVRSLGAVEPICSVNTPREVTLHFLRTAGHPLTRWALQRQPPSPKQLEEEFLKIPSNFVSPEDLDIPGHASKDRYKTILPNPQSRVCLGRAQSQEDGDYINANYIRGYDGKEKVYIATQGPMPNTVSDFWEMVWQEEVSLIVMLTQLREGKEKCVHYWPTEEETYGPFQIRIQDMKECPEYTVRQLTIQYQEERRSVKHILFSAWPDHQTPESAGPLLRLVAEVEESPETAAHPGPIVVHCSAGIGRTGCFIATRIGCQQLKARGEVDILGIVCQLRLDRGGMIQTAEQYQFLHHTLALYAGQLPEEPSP

[15] = target: Glyceraldehyde-3-phosphate dehydrogenase (Homo sapiens, UniProt P04406)
[16] = target: T4, Dual specificity protein phosphatase 6 (Rattus norvegicus, UniProt Q64346)
T4 sequence (Q64346 whole entry): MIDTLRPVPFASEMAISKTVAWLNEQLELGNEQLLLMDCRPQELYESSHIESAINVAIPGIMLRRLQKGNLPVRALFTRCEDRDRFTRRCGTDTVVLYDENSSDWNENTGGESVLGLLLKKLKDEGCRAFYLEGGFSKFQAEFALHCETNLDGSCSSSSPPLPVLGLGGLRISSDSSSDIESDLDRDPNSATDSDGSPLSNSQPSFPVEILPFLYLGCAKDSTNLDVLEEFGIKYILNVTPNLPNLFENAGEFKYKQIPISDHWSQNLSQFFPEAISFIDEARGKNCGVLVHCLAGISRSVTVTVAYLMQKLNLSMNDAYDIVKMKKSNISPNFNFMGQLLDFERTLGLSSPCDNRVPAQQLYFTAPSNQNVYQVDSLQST

[17] = target: T4, Dual specificity protein phosphatase 6; assay type: functional

Polyadenylate-binding protein 1, sequence (P11940 whole entry): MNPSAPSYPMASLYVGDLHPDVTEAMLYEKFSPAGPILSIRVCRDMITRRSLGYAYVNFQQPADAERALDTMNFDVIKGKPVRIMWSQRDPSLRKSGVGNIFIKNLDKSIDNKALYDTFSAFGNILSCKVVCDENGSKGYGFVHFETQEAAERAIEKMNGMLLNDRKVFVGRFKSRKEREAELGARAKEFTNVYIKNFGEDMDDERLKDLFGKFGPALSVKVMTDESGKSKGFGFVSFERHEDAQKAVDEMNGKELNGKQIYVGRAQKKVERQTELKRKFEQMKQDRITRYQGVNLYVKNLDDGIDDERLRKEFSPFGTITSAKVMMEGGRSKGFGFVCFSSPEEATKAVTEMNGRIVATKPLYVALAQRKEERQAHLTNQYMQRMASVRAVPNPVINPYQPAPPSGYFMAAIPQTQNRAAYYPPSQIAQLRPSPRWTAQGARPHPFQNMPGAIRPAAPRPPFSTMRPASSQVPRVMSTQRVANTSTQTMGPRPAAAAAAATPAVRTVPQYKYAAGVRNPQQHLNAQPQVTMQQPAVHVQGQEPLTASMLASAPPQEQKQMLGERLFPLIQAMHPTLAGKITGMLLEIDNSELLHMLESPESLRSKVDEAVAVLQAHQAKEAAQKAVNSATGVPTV
Female germline-specific tumor suppressor gld-1, sequence (Q17339 whole entry): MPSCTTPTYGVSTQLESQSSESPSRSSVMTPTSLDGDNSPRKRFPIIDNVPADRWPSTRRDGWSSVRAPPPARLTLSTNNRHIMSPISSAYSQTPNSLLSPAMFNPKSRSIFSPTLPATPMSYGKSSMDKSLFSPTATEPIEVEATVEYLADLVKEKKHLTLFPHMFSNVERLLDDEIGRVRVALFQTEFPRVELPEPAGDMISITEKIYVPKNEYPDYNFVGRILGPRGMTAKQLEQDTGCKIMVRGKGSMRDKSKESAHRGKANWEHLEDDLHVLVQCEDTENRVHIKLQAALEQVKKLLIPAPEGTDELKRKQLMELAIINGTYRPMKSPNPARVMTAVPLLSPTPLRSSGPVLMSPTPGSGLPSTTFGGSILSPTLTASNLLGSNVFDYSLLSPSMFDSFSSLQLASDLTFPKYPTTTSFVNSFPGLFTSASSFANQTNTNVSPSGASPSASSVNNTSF
Neuropeptides B/W receptor type 1, sequence (P48145 whole entry): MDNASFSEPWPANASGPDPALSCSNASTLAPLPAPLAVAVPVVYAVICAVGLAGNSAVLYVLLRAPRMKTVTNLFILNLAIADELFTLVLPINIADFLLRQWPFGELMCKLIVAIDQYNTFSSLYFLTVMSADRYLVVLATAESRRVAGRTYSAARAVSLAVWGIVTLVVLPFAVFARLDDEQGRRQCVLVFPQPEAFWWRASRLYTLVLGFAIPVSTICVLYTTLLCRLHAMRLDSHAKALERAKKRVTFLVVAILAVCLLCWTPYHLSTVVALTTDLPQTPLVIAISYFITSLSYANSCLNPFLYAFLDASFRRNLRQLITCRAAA
X-box-binding protein 1, sequence (P17861 whole entry): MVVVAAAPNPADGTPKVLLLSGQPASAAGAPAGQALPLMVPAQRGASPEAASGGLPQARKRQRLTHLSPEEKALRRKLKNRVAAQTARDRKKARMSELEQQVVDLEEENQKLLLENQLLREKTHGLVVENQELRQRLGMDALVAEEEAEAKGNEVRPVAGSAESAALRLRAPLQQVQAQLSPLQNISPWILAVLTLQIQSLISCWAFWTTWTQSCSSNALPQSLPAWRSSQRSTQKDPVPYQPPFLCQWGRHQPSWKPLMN
Protein Tat, sequence (P04608 whole entry): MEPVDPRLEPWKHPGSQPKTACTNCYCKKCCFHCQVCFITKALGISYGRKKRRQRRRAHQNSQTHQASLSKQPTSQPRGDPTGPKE
Cytochrome P450 2D6, sequence (P10635 whole entry): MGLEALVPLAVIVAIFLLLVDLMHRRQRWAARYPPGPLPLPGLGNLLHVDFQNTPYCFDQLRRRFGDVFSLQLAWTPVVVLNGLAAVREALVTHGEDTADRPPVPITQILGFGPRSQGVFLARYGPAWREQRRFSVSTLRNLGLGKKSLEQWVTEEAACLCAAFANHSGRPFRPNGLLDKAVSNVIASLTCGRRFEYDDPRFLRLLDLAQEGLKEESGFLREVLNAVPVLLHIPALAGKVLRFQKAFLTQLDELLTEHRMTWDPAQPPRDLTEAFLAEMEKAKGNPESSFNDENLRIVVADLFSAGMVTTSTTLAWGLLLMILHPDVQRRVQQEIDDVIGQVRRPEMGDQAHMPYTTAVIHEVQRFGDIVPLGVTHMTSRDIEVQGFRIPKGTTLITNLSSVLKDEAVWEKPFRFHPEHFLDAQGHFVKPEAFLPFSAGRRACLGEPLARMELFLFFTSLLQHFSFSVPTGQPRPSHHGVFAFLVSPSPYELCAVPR
Genome polyprotein, sequence (P29990 2492-3391 limits assumed): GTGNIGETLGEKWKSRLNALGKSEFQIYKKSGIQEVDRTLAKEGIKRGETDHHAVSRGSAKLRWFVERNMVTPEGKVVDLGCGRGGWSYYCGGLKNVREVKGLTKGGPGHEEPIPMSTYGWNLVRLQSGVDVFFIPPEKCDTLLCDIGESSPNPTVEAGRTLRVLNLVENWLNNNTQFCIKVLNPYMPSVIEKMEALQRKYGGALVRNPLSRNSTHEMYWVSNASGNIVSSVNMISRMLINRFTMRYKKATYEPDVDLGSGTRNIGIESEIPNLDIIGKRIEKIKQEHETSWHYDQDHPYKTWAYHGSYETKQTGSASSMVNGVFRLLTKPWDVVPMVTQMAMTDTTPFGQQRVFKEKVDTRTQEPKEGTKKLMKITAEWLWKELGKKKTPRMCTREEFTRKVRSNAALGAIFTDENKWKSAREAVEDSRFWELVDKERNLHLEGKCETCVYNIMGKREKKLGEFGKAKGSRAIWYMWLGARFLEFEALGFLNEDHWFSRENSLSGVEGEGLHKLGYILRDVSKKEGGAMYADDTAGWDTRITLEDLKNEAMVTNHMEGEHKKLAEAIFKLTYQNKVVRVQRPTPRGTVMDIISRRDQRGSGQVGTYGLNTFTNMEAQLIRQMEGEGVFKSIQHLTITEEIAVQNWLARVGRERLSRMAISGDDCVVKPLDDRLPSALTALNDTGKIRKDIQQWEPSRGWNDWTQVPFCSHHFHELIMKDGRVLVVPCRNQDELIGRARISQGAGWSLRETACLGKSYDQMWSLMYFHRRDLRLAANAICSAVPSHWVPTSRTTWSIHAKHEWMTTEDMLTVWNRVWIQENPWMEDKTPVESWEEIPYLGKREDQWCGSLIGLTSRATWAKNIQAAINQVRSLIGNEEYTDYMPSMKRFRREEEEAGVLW
Estrogen receptor beta, sequence (Q92731 whole entry): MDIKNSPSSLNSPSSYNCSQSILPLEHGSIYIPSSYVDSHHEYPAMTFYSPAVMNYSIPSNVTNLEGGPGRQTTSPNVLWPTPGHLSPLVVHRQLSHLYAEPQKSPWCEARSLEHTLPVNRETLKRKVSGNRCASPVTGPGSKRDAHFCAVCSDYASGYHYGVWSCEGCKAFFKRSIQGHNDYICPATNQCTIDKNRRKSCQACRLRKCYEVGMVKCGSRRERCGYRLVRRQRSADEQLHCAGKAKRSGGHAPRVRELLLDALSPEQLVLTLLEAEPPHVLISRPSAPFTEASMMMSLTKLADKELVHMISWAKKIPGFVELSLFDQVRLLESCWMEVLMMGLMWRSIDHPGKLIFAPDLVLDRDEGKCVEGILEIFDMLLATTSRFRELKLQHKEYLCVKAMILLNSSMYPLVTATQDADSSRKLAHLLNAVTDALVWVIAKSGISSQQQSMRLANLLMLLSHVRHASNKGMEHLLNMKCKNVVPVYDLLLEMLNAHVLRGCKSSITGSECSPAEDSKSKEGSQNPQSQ
Melanin-concentrating hormone receptor 1, sequence (Q99705 whole entry): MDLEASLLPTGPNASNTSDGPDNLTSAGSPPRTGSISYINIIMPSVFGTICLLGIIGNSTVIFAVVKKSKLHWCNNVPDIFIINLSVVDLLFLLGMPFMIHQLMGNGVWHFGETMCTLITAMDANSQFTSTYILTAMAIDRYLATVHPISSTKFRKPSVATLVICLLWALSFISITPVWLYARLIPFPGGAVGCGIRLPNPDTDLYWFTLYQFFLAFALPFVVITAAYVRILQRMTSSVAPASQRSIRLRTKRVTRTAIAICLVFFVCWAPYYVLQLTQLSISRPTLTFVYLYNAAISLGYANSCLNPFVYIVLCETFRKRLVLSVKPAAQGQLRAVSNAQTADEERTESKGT
Glyceraldehyde-3-phosphate dehydrogenase, sequence (P04406 whole entry): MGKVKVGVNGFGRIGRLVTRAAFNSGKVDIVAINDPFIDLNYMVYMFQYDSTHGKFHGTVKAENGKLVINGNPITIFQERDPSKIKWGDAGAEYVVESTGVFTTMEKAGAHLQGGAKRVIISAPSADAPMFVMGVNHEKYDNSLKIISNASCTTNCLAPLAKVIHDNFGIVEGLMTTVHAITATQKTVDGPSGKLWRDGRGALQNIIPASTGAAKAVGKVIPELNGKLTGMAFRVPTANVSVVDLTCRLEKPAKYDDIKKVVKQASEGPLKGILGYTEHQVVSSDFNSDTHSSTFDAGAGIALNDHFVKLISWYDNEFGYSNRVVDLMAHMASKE
Cytochrome P450 2C9, sequence (P11712 whole entry): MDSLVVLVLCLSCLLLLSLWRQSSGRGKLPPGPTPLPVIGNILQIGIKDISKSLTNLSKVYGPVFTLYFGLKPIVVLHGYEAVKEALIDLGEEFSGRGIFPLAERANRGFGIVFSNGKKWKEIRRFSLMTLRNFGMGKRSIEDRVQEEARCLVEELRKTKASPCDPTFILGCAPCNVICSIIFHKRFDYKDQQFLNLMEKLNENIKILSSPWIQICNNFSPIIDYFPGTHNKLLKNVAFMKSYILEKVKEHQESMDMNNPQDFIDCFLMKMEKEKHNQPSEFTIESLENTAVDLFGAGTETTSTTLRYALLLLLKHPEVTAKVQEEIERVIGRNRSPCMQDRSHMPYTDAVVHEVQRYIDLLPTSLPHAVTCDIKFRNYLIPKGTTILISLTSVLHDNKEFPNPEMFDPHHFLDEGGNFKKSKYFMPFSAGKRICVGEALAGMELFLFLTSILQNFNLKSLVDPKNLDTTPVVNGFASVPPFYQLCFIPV

EC50 (Caspase-3): > 85.3 µM (inactive)
EC50 (Caspase-7): > 85.3 µM (inactive)
Structure (SMILES): COc1cc2c(cc1OC)C(C)N(C(=O)c1cc3c(s1)-c1ccccc1OC3)CC2 (stereo not drawn)
CC50 [1]: 27.4 µM (active)

Structure (SMILES): COc1ccc(Nc2nnc(SCc3cc(=O)n4ccsc4n3)s2)cc1
IC50 (Protein Rev): > 75.4 µM (not active)
CC50 [1]: 36.5 µM (active)
IC50 [2]: 45.5 µM (inactive)
IC50 (Estrogen receptor beta): > 50 µM (not active)
IC50 (H9c2): 7.45 µM (active)
IC50 [3]: 26.2 µM (inactive)
IC50 [4]: 16.3 µM (active)

AC50 (Cytochrome P450 2D6): 39.8 µM (inconclusive)
AC50 (Cytochrome P450 2C9): 12.6 µM (inconclusive)
Structure (SMILES): NCCC[C@@H](CC(=O)N[C@@H]1CCCC[C@H]1C(=O)N[C@H](CC(=O)N[C@@H](CCC(=O)O)CC(=O)O)Cc1c[nH]c2ccccc12)NC(=O)C[C@H](CO)NC(=O)[C@@H]1CNCC[C@H]1N

Structure (SMILES): Oc1ccc(/C=N/NP(=S)(c2ccccc2)c2ccccc2)c(O)c1O
EC50 [5]: > 150 µM (inactive)
IC50 [6]: 65.3 µM (active)
EC50 [7]: > 38 µM (not active)
IC50 [8]: > 100 µM (inactive)
IC50 (Genome polyprotein): > 100 µM (active)
IC50 (Protein Tat): 25.3 µM (inconclusive)

Structure (SMILES): COc1ccc(-c2[nH]ncc2/C=C(/C#N)C(=O)NC2CCCCCC2)cc1
EC50 [9]: 12.6 µM (active)
EC50 [10]: 11.3 µM (active)
Absolute IC50 (XBP1) (X-box-binding protein 1): 10 µM

IC50 [11]: > 43.8 µM (not active)
IC50 [12]: > 43.8 µM (not active)
Structure (SMILES): Nc1c(C(=O)NCc2ccc3c(c2)OCO3)nnn1Cc1ccc(Br)cc1

IC50 [13]: > 56.8 µM (inactive)
Structure (SMILES): O=C(NCCCO)c1cc(-c2ccco2)nc2ccccc12

IC50 [14]: > 100 µM (not active)
IC50 [15]: > 100 µM (not active)
IC50 [16]: > 100 µM (inactive)
IC50 [17]: > 100 µM (inactive)
Structure (SMILES): O=C(O)C1Nc2cc(C(F)(F)F)ccc2S(=O)(=O)N1 (stereo not drawn)
